Patent US11524082B2, “FBSA-based therapeutic and radioimaging conjugates targeting carbonic anhydrase positive cancers” (priority 2017, dated 2022)

How the values were obtained:
HT-29 xenografts = experiment: In vivo efficacy of tubulysin conjugates in HT-29 xenograft tumors; set-up: species or system mice
Procedure: (§1) Athymic nu/nu mice were purchased from Harlan Laboratories (ENVIGO), housed in a sterile environment on a standard 12 hour light-dark cycle and maintained on normal rodent chow. All animal procedures were approved by the PURDUE Animal Care and Use Committee in accordance with National Institutes of Health guidelines.
In Vivo Efficacy of Tubulysin Conjugate 12 in HT29 Xenograft Tumors.
Cells, HT-29 cells (4.25×10^6) were subcutaneously injected into the shoulders of 5-6 week old female nu/nu mice. Tumors were measured in two perpendicular directions thrice weekly with vernier calipers and their volumes were calculated as 0.5×L×W^2, where L is the longest axis (in millimeters), and W is the axis perpendicular to L (in millimeters). Dosing of Conjugate 12 was initiated when the subcutaneous tumors reached ˜100-275 mm^3 in volume. Dosing solutions were prepared in saline and filtered through a 0.22 μm filter. Solutions were administered via tail vein injection or intraperitoneally. […] Injections were given every two days and the mice were weighed concurrently. […]

A549 xenografts [1] = experiment: In vivo efficacy of Conjugate 14 in A549 xenografts; set-up: species or system mice; conditions: 1.25 umole/kg TIW for three weeks, FIG. 17
Procedure: as §1
Cells, HT-29 cells (4.25×10^6) were subcutaneously injected into the shoulders of 5-6 week old female nu/nu mice. Tumors were measured in two perpendicular directions thrice weekly with vernier calipers and their volumes were calculated as 0.5×L×W^2, where L is the longest axis (in millimeters), and W is the axis perpendicular to L (in millimeters). Dosing of Conjugate 12 was initiated when the subcutaneous tumors reached ˜100-275 mm^3 in volume. Dosing solutions were prepared in saline and filtered through a 0.22 μm filter. Solutions were administered via tail vein injection or intraperitoneally. Each mouse received 2 μmol/kg Conjugate 12 per injection. Injections were given every two days and the mice were weighed concurrently.
Similar experiments were performed using Conjugate 14 with A549 cells instead of HT-29 cells (FIGS. 17 and 18).

A549 xenografts [2] = system: A549 xenografts; set-up: species or system mice; conditions: in vivo
Procedure: (§2) Whole-Body Imaging and Biodistribution of Radiolabeled 17 in Mouse Xenograft Models
(§3) SKRC52, HT29, or A549 cells (˜3×10^6 cells per mouse) were injected subcutaneously into the shoulders of female athymic nu/nu mice. Growth of the tumors was measured in two perpendicular directions and the volumes of the tumors were calculated as 0.5×L×W^2 (L=longest axis and W=axis perpendicular to L in millimeters). Once tumors reached a minimum of 500 mm^3 in volume, animals were injected with radiolabeled Conjugate 17 (250 μCi) in PBS (100 μL, pH 7.4) via tail vein injection. To obtain whole-body images, mice were anesthetized with isoflurane and images were acquired with a Kodak Imaging Station (In-Vivo FX, Eastman Kodak Company) in combination with CCD camera and Kodak molecular imaging software (version 4.0) with the kidneys shielded. Radioimages were acquired using the following parameters: radio isotope illumination source, 3 min acquisition time, f-stop=4, focal plane=5, FOV=160, binning=8. White light images were acquired using the following parameters: white light transillumination illumination source, 0.175 s acquisition time, f-stop=16, focal plane=5, FOV=160, and no binning. After acquiring the whole-body imaging, the mice were sacrificed with CO2 asphyxiation and, following necropsy, the tissues were placed into preweighed γ-counter tubes. The radioactivity of the tissues and a fraction of the injected dose was measured in a γ-counter (Packard, Packard Instrument Company). Count per minute (CPM) values were corrected for decay times, and the results were calculated as percent of the injected dose per gram (% ID/g) of wet tissue.
250 μCi of radiolabeled Conjugate 17 was injected into the tail vein of mice bearing xenografts derived from the A549 cell line. At various time points shown in Table 3, the tissues were removed from the mice (n=1 per time point), weighed, and the radioactivity was quantified on a gamma counter. Because copper-64 emits gamma radiation at 511 keV in 36% abundance, it is possible to use gamma detection methods.

HT29 xenografts = system: HT29 xenografts; set-up: species or system mice; conditions: in vivo
Procedure: as §2, §3

SKRC52 xenografts = system: SKRC52 xenografts; set-up: species or system mice; conditions: mouse, in vivo
Procedure: as §2, §3

CAIX [3] = molecular target: T1, CAIX (Homo sapiens, UniProt Q16790); experiment: In vitro binding affinity of radiolabeled Conjugate 17 in A549 cells (gamma counting); set-up: expressed in transfected cells; conditions: 64Cu-radiolabeled, 1 h at 25° C., FIG. 10
Procedure: (§4) In Vitro Binding Affinity of Radiolabeled Conjugate 17
(§5) SKRC52, HT29, A549 cells (˜0.25×10^6) were seeded in a 24-well plate and allowed to grow overnight. Fresh medium containing increasing concentrations of radiolabeled Conjugate 17, as prepared in Example 17, in the presence or absence of 100-fold excess FBSA competition compound was added. All concentrations were examined in duplicate or triplicate. After incubating for 1 h at 25° C., cells were washed with PBS (3×0.5 mL). To each well was added 0.5 M NaOH. After 10 min, 0.45 mL of the NaOH was removed and the radioactivity was measured with a γ-counter (Packard, Packard Instrument Company). The apparent binding affinity was calculated by plotting the bound radioactivity versus the concentration of the radiolabeled conjugate with GraphPad Prism 4.

CAIX [4] = molecular target: T1, CAIX; experiment: In vitro binding affinity of radiolabeled Conjugate 17 in SKRC52 cells (gamma counting); set-up: endogenous in cells; host or cells: SKRC52
Procedure: as §4, §5

CAIX [5] = molecular target: T1, CAIX; experiment: Binding affinity of CAIX FITC conjugates by flow cytometry in SKRC52 cells; set-up: endogenous in cells; host or cells: SKRC52
Source text: (§6) General Procedure for Binding Affinity Determination of CAIX FITC Conjugates

CAIX [6] = molecular target: T1, CAIX; experiment: Binding affinity of CAIX FITC conjugates by flow cytometry in HEK293 transfected with CAIX; set-up: expressed in transfected cells; host or cells: HEK293
Source text: as §6

SKRC52 cells = experiment: Fluorescent confocal microscopy of FBSA-PEG2-FITC conjugate in SKRC52 cells; format: cell-based, Human; conditions: 25 nM conjugate, 1 hour at 37° C.; competition with 100-fold excess Compound 3; FIG. 1
Procedure: Fluorescent Microscopy of FBSA-PEG2-FITC Conjugate, Conjugate 5.
Metastatic Human Renal Cell Carcinoma (SKRC52) cells (10^5) were seeded into chambered coverglass plates and allowed to grow to confluence over 24 hours (hr). Spent medium was replaced with 0.5 mL of fresh medium containing 10% fetal bovine serum albumin and 25 nM concentration of the FITC conjugate, Conjugate 5, alone or the dye conjugate plus 100-fold excess CAIX inhibitor (Compound 3, 3-((2-(cyclooctylamino)-3,5,6-trifluoro-4-sulfamoylphenyl)sulfonyl)propanoic acid). After incubation for 1 hour at 37° C., cells were rinsed twice with 1 mL of media to remove unbound fluorescence and 0.5 ml of fresh incubation medium was added to the wells. Images were acquired using a confocal microscopy (FV 1000, Olympus).

CAIX [7] = molecular target: T1, CAIX; experiment: Binding affinity of CAIX FITC conjugates by flow cytometry in HT-29 cells; set-up: expressed in transfected cells; conditions: FIG. 4
Procedure: as §6
(§7) HEK293 transfected with CAIX, SKRC52, HT29, or A549 cells (0.25×10^6) were placed into 1.5 ml centrifuge tubes with 0.3 mL of fresh DMEM medium containing increasing concentrations of CAIX FITC conjugates in the presence or absence of 100-fold excess CAIX inhibitor (Compound 3, 3-((2-(cyclooctylamino)-3,5,6-trifluoro-4-sulfamoylphenyl)sulfonyl)propanoic acid. After incubating for 1 h at 25° C., cells were rinsed twice with 1 mL of medium. The cells were transferred into a 96-well plate and the mean florescence intensity (MFI) was read using flow cytometry (BD Accuri C6, BD Biosciences). Apparent KD was calculated by plotting MFI versus the concentration of the FITC conjugates using GraphPad Prism 4. For hypoxia experiments, cells were incubated under an atmosphere containing 1% oxygen, 5% carbon dioxide, and 94% nitrogen for 24-48 hours in a hypoxia chamber.

CAIX [8] = molecular target: T1, CAIX; experiment: Binding affinity of CAIX FITC conjugates by flow cytometry in A549 cells; set-up: expressed in transfected cells; conditions: FIG. 7
Procedure: as §6, §7

With CCCC(=O)OCN(C(=O)[C@@H](NC(=O)C1CCCCN1C)[C@@H](C)CC)[C@H](C[C@@H](OC(C)=O)c1nc(C(=O)N[C@@H](Cc2ccc(O)cc2)C[C@H](C)C(=O)NNC(=O)OCCSSC[C@H](NC(=O)[C@H](CC(=O)O)NC(=O)[C@@H](N)CNC(=O)C(CC(=O)O)NC(=O)C(CCCNC(=N)N)NC(=O)C(CC(=O)O)NC(=O)CCOCCOCCNC(=O)CCS(=O)(=O)c2c(F)c(F)c(S(N)(=O)=O)c(F)c2NC2CCCCCCC2)C(=O)O)cs1)C(C)C (stereo partly shown) [Conjugate 14] the “whole body mass, other doses” value (HT-29 xenografts; HT-29 xenograft mice, 1.5, 1, 0.5, 0.25 μmole/kg, n=1 each, FIG. 14) was “acceptable body mass profiles”, the “whole body mass, highest dose” value (HT-29 xenografts; HT-29 xenograft mice, highest dose (2 μmole/kg), n=1, FIG. 14) was “loss of body mass” and the “tumor reemergence, starting day” value (HT-29 xenografts; HT-29 xenografts, 1 umole/kg, n=1, FIG. 13) was 16 days. For the same compound, the tumor response (HT-29 xenografts; HT-29 xenografts, 1.25 umole/kg TIW for three weeks, n=5, FIG. 15) was “stable tumor regression and stable disease until treatment cessation”, the “tumor response, dose escalation” value (HT-29 xenografts; HT-29 xenografts, doses 2, 1.5, and 1 umole/kg, n=1 for each dose, FIG. 13) was “shrank tumors” and the tumor response (A549 xenografts [1]) was “stable tumor regression and stable disease until treatment cessation”.

NS(=O)(=O)c1c(F)c(F)c(S(=O)(=O)CCC(=O)NCCOCCOCCC(=O)NCCNC(=O)CCC(C(=O)O)N2CCN(CC(=O)O)CCN(CC(=O)O)CC2)c(NC2CCCCCCC2)c1F (stereo not shown) (64Cu complex, metal not drawn) [radiolabeled Conjugate 17] was tested, and the “radiation count at the tumor site, competition mouse versus non-competition mouse” value (A549 xenografts [2]) was “much lower radiation count at the tumor site”, the “tumor uptake in whole-body image, targeted versus competition mouse” value (A549 xenografts [2]) was “much higher tumor uptake than that of the competition mouse” and the “time of the highest tumor-to-tissue ratio” value (A549 xenografts [2]; mouse) was “nine”. The “tumor uptake in whole-body image, targeted versus competition mouse” value (HT29 xenografts) was “also demonstrated in mice bearing HT29 xenografts”, the “tumor to tissue background ratios” value (HT29 xenografts; mouse) was “not very good” and the “radioactivity at the tumor, with competition control” value (SKRC52 xenografts) was “the radioactivity at the tumor was receptor mediated”. For the same compound, the “uptake of removed tumors, targeted versus competition” value (SKRC52 xenografts) was “higher tumor uptake in the targeted mouse versus the competition mice”.

NS(=O)(=O)c1c(F)c(F)c(S(=O)(=O)CCC(=O)NCCOCCOCCC(=O)NCCNC(=O)CCC(C(=O)O)N2CCN(CC(=O)O)CCN(CC(=O)O)CC2)c(NC2CCCCCCC2)c1F (stereo not shown) [radiolabeled Conjugate 17] was tested, and the Kd (CAIX [3]) was 6.04 nM, the “bound radioactivity in competition controls” value (CAIX [4]; SKRC52 and A549 cells, 100-fold excess of unlabeled FBSA-COOH) was “significantly less bound radioactivity” and the “concentration reaching saturation of binding” value (CAIX [4]; SKRC52 and A549 cells, FIGS. 9 and 10) was “approximately 75 nM”. For the same compound, the Kd (CAIX [4]; SKRC52 cells, 64Cu-radiolabeled, 1 h at 25° C., FIG. 9) was 5.87 nM.

With N[C@@H](CNC(=O)CCOCCOCCOCCOCCNC(=O)CCS(=O)(=O)c1c(F)c(F)c(S(N)(=O)=O)c(F)c1NC1CCCCCCC1)C(=O)N[C@@H](CC(=O)O)C(=O)N[C@@H](CSC1CC(=O)N(c2ccc(-c3c4ccc(=O)cc-4oc4cc(O)ccc34)c(C(=O)O)c2)C1=O)C(=O)O (stereo partly drawn) [Conjugate 7, 5-(3-(((2R,5S,8S)-8-amino-2-carboxy-5-(carboxymethyl)-29-((2-(cyclooctylamino)-3,5,6-trifluoro-4-sulfamoylphenyl)sulfonyl)-4,7,11,27-tetraoxo-14,17,20,23-tetraoxa-3,6,10,26-tetraazanonacosyl)thio)-2,5-dioxopyrrolidin-1-yl)-2-(6-hydroxy-3-oxo-3H-xanthen-9-yl)benzoic acid] the Kd (CAIX [5]) was 4.57 nM, the Kd (CAIX [6]) was 55.2 nM and the “binding with competition by unconjugated inhibitor” value (CAIX [6]; HEK293-CA9 cells, 100-fold excess unconjugated inhibitor (Compound 3), FIG. 5) was “bound the cells and competed in the presence of 100-fold excess unconjugated inhibitor”.

For NS(=O)(=O)c1c(F)c(F)c(S(=O)(=O)CCC(=O)NCCOCCOCCC(=O)NC(CSC2CC(=O)N(c3ccc(-c4c5ccc(=O)cc-5oc5cc(O)ccc45)c(C(=O)O)c3)C2=O)C(=O)O)c(NC2CCCCCCC2)c1F (stereo not shown) [Conjugate 5, 2-(((1-(3-carboxy-4-(6-hydroxy-3-oxo-3H-xanthen-9-yl)phenyl)-2,5-dioxopyrrolidin-3-yl)thio)methyl)-16-((2-(cyclooctylamino)-3,5,6-trifluoro-4-sulfamoylphenyl)sulfonyl)-4,14-dioxo-7,10-dioxa-3,13-diazahexadecanoic acid], the “cell binding by confocal microscopy, alone and with excess CAIX inhibitor” value (SKRC52 cells) was “bound the cells and were competed in the presence of excess unconjugated inhibitor”, the “binding with competition by unconjugated inhibitor” value (CAIX [7]; 100-fold excess unconjugated inhibitor (Compound 3)) was “bound the cells and competed in the presence of 100-fold excess unconjugated inhibitor” and the Kd (CAIX [7]) was 4.55 nM. It also gave a Kd (CAIX [8]) of 6.04 nM, a Kd (CAIX [5]; SKRC52 cells under hypoxia (1% oxygen, 24-48 hours), FIG. 6, read-out: KD, Hypoxia SKRC52) of 4.72 nM and a Kd (CAIX [5]; SKRC52 cells without hypoxia, FIG. 6, read-out: binding affinity, Normoxia SKRC52) of 4.57 nM. It also gave a Kd (CAIX [5]; SKRC52 cells, FIG. 3, apparent KD from MFI, 1 h at 25° C., read-out: KD) of 1.28 nM and a Kd (CAIX [6]; HEK293-CA9 cells, FIG. 2 / FIG. 5, apparent KD from MFI, 1 h at 25° C., read-out: KD) of 17.9 nM.
